The source made the active and inactive calls. The rule behind the calls is not given here.
Columns and labels:
[1] = against A against n against t against i against p against r against o against l against i against f against e against r against a against t against i against v against e against a against c against t against i against v against i against t against y against a against g against a against i against n against s against t against h against u against m against a against n against M against D against A against - against M against B against - against 2 against 3 against 1 against c against e against l against l against s against a against s against s against e against s against s against e against d against a against s against r against e against d against u against c against t against i against o against n against i against n against c against e against l against l against v against i against a against b against i against l against i against t against y against m against e against a against s against u against r against e against d against a against f against t against e against r against 7 against 2 against h against r against s against b against y against M against T against T against a against s against s against a against y against; type: functional, tissue-based, Homo sapiens; details: mda-mb-231
[2] = against C against y against t against o against t against o against x against i against c against i against t against y against a against g against a against i against n against s against t against h against u against m against a against n against H against F against L against - against 1 against c against e against l against l against s against a against s against s against e against s against s against e against d against a against s against r against e against d against u against c against t against i against o against n against i against n against c against e against l against l against v against i against a against b against i against l against i against t against y against m against e against a against s against u against r against e against d against a against f against t against e against r against 7 against 2 against h against r against s against b against y against M against T against T against a against s against s against a against y against; type: ADME, tissue-based; details: Homo sapiens, HFL1
Sus scrofa [3] = species on record: Sus scrofa; assay: Displacement of [3H]colchicine from porcine brain tubulin at 1 uM incubated for 2 hrs by TopCount scintillation counting method relative to control; type: tissue-based
Sus scrofa [4] = species on record: Sus scrofa; assay: Displacement of [3H]colchicine from porcine brain tubulin at 5 uM incubated for 2 hrs by TopCount scintillation counting method relative to control; type: tissue-based
K562 [5] = assay: Induction of mitochondrial membrane potential depolarization in human K562 cells assessed proportion of cells with intact MMP at 5 nM measured after 48 hrs by JC-1 staining based flow cytometry (reference value: 98.12%); type: functional
K562 [6] = assay: Anti-microtubule activity in human K562 cells assessed as disruption of microtubule network in cytoplasm incubated for 24 hrs by immunofluorescence assay; type: functional, cell-based; details: dose 5-20 nM
K562 [7] = assay: Induction of apoptosis in human K562 cells assessed as early apoptotic cells at 5 nM incubated for 48 hrs by AnnexinV-FITC/propidium iodide staining based flow cytometry analysis (reference value: 1.47%); type: functional
K562 [8] = assay: Induction of apoptosis in human K562 cells assessed as early apoptotic cells at 10 nM incubated for 48 hrs by AnnexinV-FITC/propidium iodide staining based flow cytometry analysis (reference value: 1.47%); type: functional
K562 [9] = assay: Induction of apoptosis in human K562 cells assessed as late apoptotic cells at 10 nM incubated for 48 hrs by AnnexinV-FITC/propidium iodide staining based flow cytometry analysis (reference value: 1.78%); type: functional
K562 [10] = assay: Induction of apoptosis in human K562 cells assessed as late apoptotic cells at 20 nM incubated for 48 hrs by AnnexinV-FITC/propidium iodide staining based flow cytometry analysis (reference value: 1.78%); type: functional
K562 [11] = assay: Induction of apoptosis in human K562 cells incubated for 48 hrs by AnnexinV-FITC/propidium iodide staining based flow cytometry; type: functional, cell-based; details: dose 5-20 nM
HUVEC [12] = assay: Inhibition of cell migration in HUVEC assessed as wound closure at 5 nM after 24 hrs by scratch wound healing assay (reference value: 76.3%); type: functional, Homo sapiens; design: scale not given: the % may be the effect or the level left
HUVEC [13] = assay: Inhibition of cell migration in HUVEC assessed as wound closure at 10 nM after 24 hrs by scratch wound healing assay (reference value: 76.3%); type: functional, Homo sapiens; design: scale not given: the % may be the effect or the level left
HUVEC [14] = assay: Inhibition of cell migration in HUVEC assessed as wound closure at 20 nM after 24 hrs by scratch wound healing assay (reference value: 76.3%); type: functional, Homo sapiens; design: scale not given: the % may be the effect or the level left
HUVEC [15] = assay: Anti-angiogenesis activity in HUVEC assessed as inhibition of capillary-like tube formation at 5 nM incubated for 6 hrs by Matrigel-based optical microscopy; type: functional, cell-based; details: Homo sapiens
HUVEC [16] = assay: Anti-angiogenesis activity in HUVEC assessed as inhibition of capillary-like tube formation at 10 nM incubated for 6 hrs by Matrigel-based optical microscopy; type: functional, cell-based; details: Homo sapiens
HUVEC [17] = assay: Anti-angiogenesis activity in HUVEC assessed as inhibition of capillary-like tube formation at 20 nM incubated for 6 hrs by Matrigel-based optical microscopy; type: functional, cell-based; details: Homo sapiens
H22 [18] = assay: Anti-tumor activity against mouse H22 cells allografted in ICR mice assessed as reduction in tumor weight at 15 mg/kg, iv administered daily for 21 days; type: functional; details: 504 h, time 21 day
[19] = Toxicity in ICR mouse allografted with mouse H22 cells assessed as body weight loss at 30 mg/kg, iv administered daily for 21 days; type: organism-based; details: in vivo, 504 h, dose 30 mg/kg/day, time 21 day
K562 [20] = assay: Induction of cell cycle arrest in human K562 cells assessed as accumulation at G1 phase at 5 nM incubated for 48 hrs by propidium iodide/RNase staining based flow cytometry (reference value: 38.83%); type: functional
K562 [21] = assay: Induction of cell cycle arrest in human K562 cells assessed as accumulation at G1 phase at 10 nM incubated for 48 hrs by propidium iodide/RNase staining based flow cytometry (reference value: 38.83%); type: functional
K562 [22] = assay: Induction of cell cycle arrest in human K562 cells assessed as accumulation at S phase at 10 nM incubated for 48 hrs by propidium iodide/RNase staining based flow cytometry (reference value: 53.48%); type: functional
K562 [23] = assay: Induction of cell cycle arrest in human K562 cells assessed as accumulation at S phase at 20 nM incubated for 48 hrs by propidium iodide/RNase staining based flow cytometry (reference value: 53.48%); type: functional
K562 [24] = assay: Induction of cell cycle arrest in human K562 cells assessed as accumulation at G2/M phase at 20 nM incubated for 48 hrs by propidium iodide/RNase staining based flow cytometry (reference value: 7.7%); type: functional
K562 [25] = assay: Induction of cell cycle arrest in human K562 cells assessed as increase in accumulation at G2/M phase incubated for 48 hrs by propidium iodide/RNase staining based flow cytometry; type: functional; details: dose 5-20 nM
K562 [26] = assay: Induction of mitochondrial membrane potential depolarization in human K562 cells assessed proportion of cells with intact MMP at 10 nM measured after 48 hrs by JC-1 staining based flow cytometry (reference value: 98.12%); type: functional
K562 [27] = assay: Induction of mitochondrial membrane potential depolarization in human K562 cells assessed proportion of cells with collapsed MMP at 20 nM measured after 48 hrs by JC-1 staining based flow cytometry (reference value: 1.57%); type: functional
K562 [28] = assay: Induction of mitochondrial membrane potential depolarization in human K562 cells assessed proportion of cells with intact MMP at 20 nM measured after 48 hrs by JC-1 staining based flow cytometry (reference value: 98.12%); type: functional
HUVEC [29] = assay: Inhibition of cell migration in HUVEC assessed as decrease in wound closure after 24 hrs by scratch wound healing assay; type: functional, cell-based; details: Homo sapiens, dose 5-20 nM
HUVEC [30] = assay: Anti-angiogenesis activity in HUVEC assessed as inhibition of capillary-like tube formation incubated for 6 hrs by Matrigel-based optical microscopy; type: functional, cell-based; details: Homo sapiens, dose 5-20 nM
H22 [31] = assay: Antiproliferative activity against mouse H22 cells assessed as inhibition of cell growth by MTT assay; type: functional, cell-based
[32] = Toxicity in ICR mouse allografted with mouse H22 cells assessed as liver morphological changes at 30 mg/kg, iv administered daily for 21 days by hematoxylin and eosin staining based microscopic analysis; type: organism-based; details: in vivo, 504 h, dose 30 mg/kg/day, time 21 day
[33] = Toxicity in ICR mouse allografted with mouse H22 cells assessed as kidney morphological changes at 30 mg/kg, iv administered daily for 21 days by hematoxylin and eosin staining based microscopic analysis; type: organism-based; details: in vivo, 504 h, dose 30 mg/kg/day, time 21 day

C=C(c1cc(Cl)nc(NC)c1)c1ccc(OC)c(O)c1
IC50 [1]: 20 nM
IC50 [2]: 118 nM
inhibition (Sus scrofa [3]): 66.5%
inhibition (Sus scrofa [4]): 79.3%
Activity (K562 [5]): 86.4%
Activity (K562 [6]): Dose-dependent effect
Activity (K562 [7]): 6.6%
Activity (K562 [8]): 37.25%
Activity (K562 [9]): 11.3%
Activity (K562 [10]): 18.43%
Activity (K562 [11]): Dose-dependent effect
Activity (HUVEC [12]): 67.6%
Activity (HUVEC [13]): 55.3%
Activity (HUVEC [14]): 49.2%
Activity (HUVEC [15]): Active
Activity (HUVEC [16]): Active
Activity (HUVEC [17]): Active
inhibition in vivo at 15 mg/kg/day (H22 [18]): 58.7%
Activity [19]: Non-Toxic
Activity (K562 [20]): 39.94%
Activity (K562 [21]): 38.45%
Activity (K562 [22]): 50.01%
Activity (K562 [23]): 48.07%
Activity (K562 [24]): 15.28%
Activity (K562 [25]): Dose-dependent effect
Activity (K562 [26]): 79.83%
Activity (K562 [27]): 38.84%
Activity (K562 [28]): 61.55%
inhibition (HUVEC [29]): Dose-dependent effect
Activity (HUVEC [30]): Dose-dependent effect
IC50 (H22 [31]): 17 nM
Activity [32]: Non-Toxic
Activity [33]: Non-Toxic

Source: ChEMBL document CHEMBL4765299 (Eur J Med Chem, 2020)
